Assay results reported in PMC7672424 (Nucleic Acids Research, 2020).

Tests used:
[1] = tested on: 19AT (DNA, duplex) ACGTCGATTATAGACGAGC/GCTCGTCTATAATCGACGT; assay: CD melting; conditions: 50 mM K+; 10 mM Tris-HCl pH 7.4; 5 µM DNA, 20 µM compound
Duplex = assay: CD melting, DNA stabilization; format: binding; conditions: 5 µM DNA (19AT), 20 µM BMPQ-1, 10 mM Tris-HCl, 50 mM KCl, pH 7.4
Experimental: Figure S2. Normalized CD thermal melting curves of DNAs in the absence or presence of BMPQ-1 under K+ conditions. (A) TTA69, (B) TTA45, (C) TTA, (D) c-KIT1, (E) TBA, (F) duplex DNA 19AT. The DNA concentration was 5 µM, and BMPQ-1 was 10 µM or 20 µM. All measurements were carried out in the buffer with 10 mM Tris-HCl (pH 7.4), 50 mM KCl. […]

TTA45 = assay: FRET melting assay, stabilization of TTA45; format: binding, human; conditions: 0.5 µM TTA45, 10 mM K2HPO4/KH2PO4, 100 mM KCl, pH 7.0
Experimental: Based on the conventional G-quadruplex ligand design ([46]), ∼400 compounds were selected from Chinese National Compound library of Peking University (PKU-CNCL). These compounds were evaluated for their ability to bind to TTA45 by Fluorescence Resonance Energy Transfer (FRET) assay (Supplementary Tables S1 and S2) ([47]). […] Compounds 21-38 were purchased to study their binding with TTA45 by FRET (Supplementary Table S3). […] page 4: Table S2. Stabilization of TTA45 as determined by FRET assays (continued). Compounds Structures ΔTm/°C Compounds Structures ΔTm/°C 23 10.3 25 14.6 […] OH 24 […] KCl, pH 7.0) was determined by FRET procedure, and Tm/°C were derived by their difference. The concentration of compounds 21-26 were 20 μM , and other compounds were 50 μM. FRET assay was carried out on the Real-Time PCR 3.2 machine (Analytik Jena, Germany). The total reaction volume was 20 μL with 0.5 μM of oligonucleotide labelled with FAM at the 3' end and TAMRA at 5' end in 10 mM K2HPO4/KH2PO4 (pH 7.0) containing 100 mM KCl. […] Then compounds with various concentrations were added into the DNA samples.

[2] = tested on: TTA (DNA, G4) GGGTTAGGGTTAGGGTTAGGG; assay: CD melting; conditions: 50 mM K+; 10 mM Tris-HCl pH 7.4; 5 µM DNA, 20 µM compound
[3] = tested on: BG4 foci (DNA G-quadruplexes) in A549 cells; assay: Immunofluorescence of BG4 and TRF2 foci; format: cell-based, human; conditions: A549, 1.5 μM, 24 h
Experimental: The cells (5 × 10^4 cells) were seeded on 35-mm glass-bottomed dishes and grown for 24 h for attachment. Then old medium was replaced by fresh DMEM containing 1.5 μM BMPQ-1 and incubated for 24 h. After washed three times with PBS buffer, the cells were fixed in 4% paraformaldehyde/PBS for 15 min and then permeabilized with 0.3% Triton-X 100/PBS at 37°C for 20 min. Then the cells were blocked with 5% BSA/PBS at 37°C for 1 h. Finally, the cells were incubated with primary antibodies at 37°C for 3 h. After that, the cells were washed six times with blocking buffer, and were then incubated with secondary antibodies at 37°C for 3 h. Finally, the cells were washed six times with PBS buffer again. The digital images were recorded using a confocal laser scanning microscopy (Olympus FV1000) and analyzed with ImageJ software. One hundred nuclei were counted in each group. […]
Figure 2. […] (B) Quantification of the number of γH2AX foci per nucleus in A549 cells treated with or without BMPQ-1. (C) Quantification of the colocalization of γH2AX and TRF2 per nucleus in A549 cells treated with or without BMPQ-1. […] (E) Quantification of the number of BG4 foci per nucleus in A549 cells treated with or without BMPQ-1. (F) Quantification of the colocalized BG4 and TRF2 per nucleus in A549 cells treated with or without BMPQ-1.

A549 cells = assay: Cell cycle analysis by flow cytometry (PI); format: cell-based, human; conditions: A549, 3 μM, 24 h; control 10.4%
Experimental: A549 cells treated with BMPQ-1 were harvested and washed in PBS and fixed with 70% ethanol at 4°C overnight. Then, the cells were centrifuged and re-suspended in a staining solution (50 μg/mL propidium iodide (PI), 75 KU/ml RNase A in PBS) for 30 min at room temperature in the dark. The cells were analyzed by flow cytometer (BD FacsAria, USA). For each analysis, 2.0 × 10^4 events were collected.
Figure S9. BMPQ-1 induced A549 cell cycle arrest. (A) The cell cycle analysis of A549 cells after 24 h treatment with BMPQ-1. The cells were collected and stained with propidium iodide (PI). (B) Percentage of A549 cells in different phases of the cell cycle. […]
different from the control. […]

[4] = tested on: TTA45 (DNA, G4) GGGTTAGGGTTAGGGTTAGGGTTAGGGTTAGGGTTAGGGTTAGGG; assay: ligand fluorescence enhancement; conditions: 100 mM K+ (KCl) plus potassium phosphate; 10 mM K2HPO4/KH2PO4 pH 7.0; 3 µM compound, 2 µM DNA; 10-fold increase at 521 nm
[5] = tested on: TBA (DNA, G4) GGTTGGTGTGGTTGG; assay: CD melting; conditions: 50 mM K+; 10 mM Tris-HCl pH 7.4; 5 µM DNA, 20 µM compound
[6] = tested on: c-KIT1 (DNA, G4) AGGGAGGGCGCTGGGAGGAGGG; assay: CD melting; conditions: 50 mM K+; 10 mM Tris-HCl pH 7.4; 5 µM DNA, 20 µM compound

Cc1ccc(Cn2cc3c(-c4ccc5c(c4)OCO5)nnc-3c3cc4c(cc32)OCO4)cc1 [BMPQ-1]
ΔTm [1]: 1.8 °C
ΔTm (°C) Duplex (Duplex): 1.8 °C
ΔTm/°C, TTA45 stabilization by FRET (Table S3) (TTA45; 20 µM compounds): 16.09 ± 1.79 °C
ΔTm/°C, stabilization of TTA45 by FRET (Table S2) (TTA45; compounds 21-26 20 µM): 16.1 °C
ΔTm [2]: 8.4 °C
amount of BG4 foci in the nucleus [3]: significant increase
amount of co-localized BG4 and TRF2 foci [3]: significantly increased
percentage of G2/M phase (A549 cells): 17.8%
binding [4]: yes
ΔTm [5]: 4.7 °C
ΔTm [6]: 6.6 °C
